Laboratory results from PMC4467398, “Preclinical antitumor activity of ST7612AA1: a new oral thiol-based histone deacetylase (HDAC) inhibitor” (Oncotarget, 2014).

Tested on: DOHH2 and TMD8 DLBCL cells
Assay: Gene expression profiling (HumanHT-12 v4 BeadChip, limma), ST7612AA1 300 nM 8 hrs vs DMSO
Format: cell-based, human
Conditions: 300 nM 8 hrs vs DMSO

SMILES: CC(=O)SCCCCC[C@H](NC(=O)[C@H]1CCC(=O)N1)C(=O)Nc1ccccc1 [ST7612AA1]
- log ratio LOC285359 (ILMN_1675878): 6.44E-01
- log ratio LOC388588 (probe ILMN_1749834): 7.07E-01
- log ratio LOC389816 (ILMN_2249018): 6.55E-01
- log ratio LOC643384 (ILMN_3219806): -1.06E+00
- log ratio LOC644563 (ILMN_3207122): -1.31E+00
- log ratio LOC644988 (ILMN_3201485): 6.07E-01
- log ratio LOC646463 (ILMN_1721651): 6.71E-01
- log ratio LOC646786 (ILMN_1654915): 6.50E-01
- log ratio LOC646817 (ILMN_1702585): -1.11E+00
- log ratio LOC647784 (ILMN_1674710): 6.05E-01
- log ratio LOC650215 (ILMN_1743711): -8.77E-01
- log ratio LOC653566 (ILMN_1780382): -6.21E-01
- log ratio LOC654191 (probe ILMN_1762308): 7.84E-01
- log ratio LOC727935 (probe ILMN_1691616): 7.14E-01
- log ratio LOC728014 (probe ILMN_1711699): 8.58E-01
- log ratio LOC728492 (ILMN_1655444): -8.05E-01
- log ratio LOC728602 (ILMN_3305993): 6.70E-01
- log ratio LOC728650 (ILMN_3234615): -8.83E-01
- log ratio LOC729495 (probe ILMN_3297510): 7.45E-01
- log ratio LOC730101 (probe ILMN_3305735): 7.41E-01
- log ratio LOC730415 (probe ILMN_3228688): 6.95E-01
- log ratio LOC731049 (ILMN_1808591): 6.61E-01
- log ratio LOC731314 (probe ILMN_1785756): 8.31E-01
- log ratio LOC100128163 (probe ILMN_3182893): 7.83E-01
- log ratio LOC100130919 (ILMN_3176090): -8.14E-01
- log ratio LOC100131727 (probe ILMN_3292990): 7.73E-01
- log ratio LOC100131735 (ILMN_3208233): -5.90E-01
- log ratio LOC100132715 (ILMN_3211935): -5.93E-01
- log ratio LOC100133583 (probe ILMN_3214389): 8.94E-01
- log ratio LOC100133678 (probe ILMN_3249667): 8.11E-01
- log ratio LOC100134361 (probe ILMN_3241081): 8.59E-01
- log ratio LPCAT3 (ILMN_1805225): 6.30E-01
- log ratio LRCH4 (probe ILMN_2157075): 8.54E-01
- log ratio LRP8 (ILMN_1677765): -8.68E-01
- log ratio LRRC1 (probe ILMN_1755383): 7.83E-01
- log ratio LRRC16 (ILMN_1736730): 5.94E-01
- log ratio LRRC32 (ILMN_2129161): 6.30E-01
- log ratio LRRC33 (ILMN_1746148): -1.42E+00
- log ratio LRRFIP2 (ILMN_1707156): 6.31E-01
- log ratio LRRK1 (ILMN_1696004): -8.42E-01
- log ratio LTA4H (probe ILMN_1690342): 7.50E-01
- log ratio LUZP1 (ILMN_1714159): 6.25E-01
- log ratio LYAR (ILMN_1764362): -8.62E-01
- log ratio LYAR (ILMN_2221564): -9.24E-01
- log ratio LYRM5 (probe ILMN_1744534): 7.90E-01
- log ratio LYRM7 (ILMN_3238623): 6.34E-01
- log ratio LYSMD4 (probe ILMN_2159859): 6.95E-01
- log ratio MAD2L2 (ILMN_1669550): 6.43E-01
- log ratio MAK16 (ILMN_1777139): -7.86E-01
- log ratio MAP1LC3B (probe ILMN_1703244): 7.73E-01
- log ratio MAP1S (ILMN_1796336): 6.11E-01
- log ratio MAP2K1 (probe ILMN_1694240): 7.15E-01
- log ratio MAPKAPK2 (ILMN_1774844): 6.77E-01
- log ratio MAPRE2 (probe ILMN_1695276): 7.72E-01
- log ratio MARCKSL1 (probe ILMN_1714433): 8.47E-01
- log ratio MAST3 (probe ILMN_1738749): 7.21E-01
- log ratio MCL1 (ILMN_1756806): 6.49E-01
- log ratio MCRS1 (ILMN_1784227): -9.30E-01
- log ratio MED24 (ILMN_2388272): -6.00E-01
- log ratio MEPCE (ILMN_2180827): -8.77E-01
- log ratio METTL1 (ILMN_1815190): -9.82E-01
- log ratio METTL1 (ILMN_3306997): -9.97E-01
- log ratio MEX3C (ILMN_1658182): -6.16E-01
- log ratio MGC3731 (ILMN_1759991): -9.43E-01
- log ratio MGEA5 (ILMN_1686750): 6.73E-01
- log ratio MINA (ILMN_1746025): -5.93E-01
- log ratio MNS1 (probe ILMN_2157240): 7.07E-01
- log ratio MPDU1 (ILMN_1655654): -1.02E+00
- log ratio MPDU1 (ILMN_2070815): -8.19E-01
- log ratio MRLC2 (ILMN_1654016): 5.90E-01
- log ratio MRPL3 (ILMN_1713143): -8.76E-01
- log ratio MRPL20 (ILMN_2189424): -8.46E-01
- log ratio MRPL24 (ILMN_2398995): -6.00E-01
- log ratio MRPL35 (ILMN_2341952): -5.96E-01
- log ratio MRPL54 (ILMN_1658486): -9.87E-01
- log ratio MRPS26 (ILMN_1676026): -7.88E-01
- log ratio MRPS30 (ILMN_1726743): -5.98E-01
- log ratio MRPS35 (ILMN_2189993): -8.24E-01
- log ratio MRTO4 (ILMN_1689800): -9.19E-01
- log ratio MTE (probe ILMN_2136089): 8.56E-01
- log ratio MTHFD1L (ILMN_1772521): -9.66E-01
- log ratio MTHFS (ILMN_1772302): -1.28E+00
- log ratio MTP18 (ILMN_2355665): -9.91E-01
- log ratio MTX3 (ILMN_1679071): -6.10E-01
- log ratio MYB (ILMN_1711894): -9.88E-01
- log ratio MYBL1 (probe ILMN_3241046): 7.69E-01
- log ratio MYD88 (ILMN_1738523): -1.17E+00
- log ratio MYH9 (ILMN_1722872): 6.24E-01
- log ratio MYH10 (ILMN_1815154): 5.97E-01
- log ratio N6AMT2 (ILMN_1730260): -9.90E-01
- log ratio NARG1 (ILMN_1669142): -6.10E-01
- log ratio NBN (ILMN_1734833): -9.40E-01
- log ratio NECAP2 (ILMN_1749011): 6.12E-01
- log ratio NEK2 (ILMN_2051373): 6.21E-01
- log ratio NGDN (ILMN_1690049): -6.03E-01
- log ratio NIP7 (ILMN_1704305): -1.05E+00
- log ratio NLGN2 (ILMN_1764158): 6.16E-01
- log ratio NMI (ILMN_1739541): -9.86E-01
- log ratio NOL6 (ILMN_2320250): -8.75E-01
- log ratio NOL11 (ILMN_1688971): -7.88E-01
- log ratio NOP16 (ILMN_3247723): -1.13E+00
- log ratio NOSIP (probe ILMN_1759436): 7.06E-01
- log ratio NPC2 (probe ILMN_1716678): 8.44E-01
- log ratio NPHP3 (ILMN_1730539): 6.73E-01
- log ratio NPL (probe ILMN_1782070): 7.76E-01
- log ratio NPL (probe ILMN_2149494): 8.88E-01
- log ratio NQO2 (probe ILMN_1712918): 8.69E-01
- log ratio NSMAF (ILMN_1716596): -1.37E+00
- log ratio NUB1 (probe ILMN_1665291): 7.20E-01
- log ratio NUCKS1 (ILMN_3251404): -5.98E-01
- log ratio NUDT6 (ILMN_2366972): 5.92E-01
- log ratio NUDT15 (ILMN_1751403): -5.98E-01
- log ratio NUMB (probe ILMN_2331266): 7.27E-01
- log ratio NUP188 (ILMN_1715416): -5.95E-01
- log ratio NXF1 (probe ILMN_1705783): 8.80E-01
- log ratio NXF1 (probe ILMN_2358652): 7.18E-01
- log ratio NXT1 (ILMN_1760280): -8.51E-01
- log ratio OAS2 (ILMN_2248970): -1.29E+00
- log ratio OSBPL2 (ILMN_1656482): 6.07E-01
- log ratio P704P (probe ILMN_1793950): 6.85E-01
- log ratio PAG1 (ILMN_2055156): 6.63E-01
- log ratio PAQR3 (ILMN_1716071): 6.81E-01
- log ratio PAQR8 (probe ILMN_1694589): 7.20E-01
- log ratio PCMT1 (ILMN_1671621): 6.27E-01
- log ratio PCTP (ILMN_1802257): 6.55E-01
- log ratio PCYOX1 (probe ILMN_1679725): 7.89E-01
- log ratio PDCD2 (ILMN_1758915): -8.70E-01
- log ratio PDXK (probe ILMN_1672504): 8.94E-01
- log ratio PECI (probe ILMN_2384536): 8.25E-01
- log ratio PEMT (ILMN_1745806): -5.93E-01
- log ratio PEX16 (probe ILMN_1745655): 7.84E-01
- log ratio PFKFB3 (ILMN_2186061): 6.71E-01
- log ratio PHF5A (ILMN_2112402): -8.44E-01
- log ratio PHF15 (ILMN_1795285): -8.13E-01
- log ratio PHF19 (ILMN_1713249): -1.52E+00
- log ratio PHF19 (ILMN_1745420): -1.01E+00
- log ratio PIGW (ILMN_1743397): -1.03E+00
- log ratio PIM2 (probe ILMN_1748283): 7.43E-01
- log ratio PITX1 (ILMN_1674386): -8.58E-01
- log ratio PKIA (ILMN_1762262): 6.12E-01
- log ratio PKIA (probe ILMN_2337974): 7.37E-01
- log ratio PLD3 (probe ILMN_1666976): 8.81E-01
- log ratio PLD6 (ILMN_1731518): -1.18E+00
- log ratio PLD6 (ILMN_3240586): -1.84E+00
- log ratio PLIN2 (ILMN_2138765): 5.92E-01
- log ratio PLS1 (ILMN_1759206): 6.43E-01
- log ratio PLXNA3 (ILMN_1719972): 6.52E-01
- log ratio PMAIP1 (probe ILMN_2098446): 8.50E-01
- log ratio PNKD (probe ILMN_1774604): 7.25E-01
